Data on two molecules can be found in publication PMC10527105, “Chirality Matters: Fine-Tuning of Novel Monoamine Reuptake Inhibitors Selectivity through Manipulation of Stereochemistry” (Biomolecules, 2023).

For data set [1], the target named is T1, human dopamine transporter/SLC6A3 (DAT) (Homo sapiens, UniProt Q01959).
T1 construct: expressed in transfected cells; host or cells: HEK293
In words: Cellular uptake experiments: [3H]-dopamine reuptake inhibition in transporter-expressing HEK293 cells. Format: cell-based. The note with it: Reuptake Inhibition (IC50 ± SE, µM) DAT, cells stably expressing DAT; [3H]-dopamine 1 µM; screening cut-off 50 µM. The method, boiled down: (§1)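 Stably transfected HEK293 cells preincubated 5 min with compound, then 1 µM [3H]-substrate for 2.5 min (SERT: 5 min) at 25 °C, pH 7.1 buffer; uptake counted by scintillation. Nonspecific uptake defined with 10 µM mazindol (DAT, NET) or 10 µM clomipramine (SERT).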

For data set [2], the target named is T2, human serotonin transporter/SLC6A4 (SERT) (Homo sapiens, UniProt P31645).
T2 construct: expressed in transfected cells; host or cells: HEK293
Put plainly: Cellular uptake experiments: [3H]-serotonin reuptake inhibition in transporter-expressing HEK293 cells. The format is cell-based. The following applies: Reuptake Inhibition (IC50 ± SE, µM) SERT, cells stably expressing SERT; [3H]-serotonin 1 µM; screening cut-off 50 µM. Summed up:
as §1

Another data set addresses T3, human DAT (Homo sapiens, UniProt Q01959).
T3 construct: host or cells: CHO
Put plainly: Radioligand binding assay, [3H]BTCP, CHO cells (Eurofins Cerep). As for the experimental part:
Binding experiments. Binding affinity to the human DAT, SERT, and NET stable proteins expressed in CHO cells was evaluated in in vitro radioligand binding assays. Non-specific binding was determined using [^3H]BTCP, [^3H]imipramine, and ^[3H] nisoxetine for hDAT, hSERT, and hNET, respectively. The IC50 values were calculated by non-linear regression analysis of the competition curves generated from the mean replicate values. The Ki values were calculated using the Cheng–Prusoff equation (Ki = IC50/(1 + […])). Binding assays were carried out by Eurofins (Cerep SA, Celle l’Evescault, France), Study No. 100053935. For an in-depth description, please refer to the report in the supporting information file.

The target of data set [3] is T4, DAT-expressing SK-N-MC cells (Homo sapiens, UniProt Q01959).
T4 construct: expressed in transfected cells; host or cells: SK-N-MC (human neuroblastoma)
Put plainly: Superfusion experiments: [3H]MPP+ efflux and d-amphetamine interaction. The format is cell-based. The following applies: for action on the dopamine-releasing effect of D-amphetamine: 3 µM D-amphetamine; for efflux-increasing (releasing) action on DAT-expressing, substrate-loaded superfused cells: compound alone.

A further data set deals with rat cortical neurons. Put plainly: Neurite outgrowth assay (Cyprotex). The format is cell-based. The following applies: for IC50: Rattus norvegicus, Cortical neurone, 72 h; for window between neurite outgrowth effect concentration and active concentration: effect at 100 µM compared to the active concentration; for effect on valid neuron count, mean neurite average length and neurite total length per neuron: only at 100 µM (top concentration tested); for effect on neurite outgrowth in relation to effect on cell viability: rat cortical neurons; for cell-toxic effects: up to a concentration of 50 µM. As to the method:
Neurite outgrowth assay. […] were carried out by Cyprotex (an Evotec Company, Toulouse, France), Study No. CYP2052-R1. For an in-depth description, please refer to the report in the supporting information files. Cryo-preserved rat cortical neurons (QBM Cell Science, R-Cx-500) were quickly thawed and slowly diluted with neurobasal medium supplemented with L-glutamine (Invitrogen, Cat. No. 25030-081), penicillin-streptomycin (Invitrogen, Cat. No. 15140-122), and B27 (NB/B27 medium, Invitrogen, Cat. No. 17504-044). After a gentle centrifugation step, the neurons were resuspended in NB/B27 medium at a density of 4.0 × 10^6 cells/mL. One hour prior to treatment, the neurons were plated in 384-well plates (Corning 354663) pre-coated with a laminin solution (Sigma L2020 1 mg/mL) at a density of 10,000 cells per well. After treatment with test articles and control compounds, the neurons were maintained in a humidified environment at 37 °C with 5% CO2 for 72 h. At the end of the treatment period, the neurons were fixed for 1 h with a 3.7% formaldehyde solution (Acros Organics, 41073-0010). The neurons were washed with phosphate buffered saline (PBS) (SH30264.02) and permeabilized for 10 min with a 0.5% solution of Triton X-100 (Millipore Sigma, X100). After another wash step, the neurons were stained for one hour with Hoechst 33342 (ThermoFisher Scientific, H3570) and the anti-beta III tubulin antibody, Alexa Fluor® 488 conjugate (Millipore Sigma AB15708A4), diluted in a blocking buffer solution (Thermo Scientific, 37525). Upon completion of the staining step, the neurons were washed again, and the plates were sealed in preparation for the imaging process. The neurons were evaluated for neurite outgrowth and cell health using the high-content imaging platform, ArrayScan VTi (Thermo Scientific ArrayScan VTi), with an optimized neuronal profiling bio-application.
This assay assessed cell health and neurite outgrowth utilizing a neuronal profiling bio-application applied to images obtained on an ArrayScan VTi. Valid neuron count, mean neurite average length, and neurite total length per neuron were determined and reported. Raw data were normalized to the vehicle control and reported as a normalized% response. Dose response graphs were generated with GraphPad Prism using a sigmoidal dose-response (variable slope) algorithm.

Data set [4] can be described thus: Compound brain levels after intraperitoneal injection. The format is in vivo. The note with it: single intraperitoneal injection, 10 mg/kg, Sprague–Dawley rats. As for the experimental part:
Compound brain levels. For an in-depth description of the brain and blood at 7h, we refer to the protocol of Evotec (France, Study No. DMPK-2020-494) in the supplementary information file.

The mark [5] stands for this setting: read-out: Mean Neurite Avg. Length IC50, rat cortical neurons, 72 h.
The mark [6] stands for this setting: read-out: Neurite Total Length per Neuron IC50, rat cortical neurons, 72 h.
The mark [7] stands for this setting: read-out: Valid Neuron Count IC50, rat cortical neurons, 72 h.

“Also recorded” adds a separate entry of the source. Read-outs that look alike come from different tables or passages of the source.

T4 sequence (Q01959 whole entry): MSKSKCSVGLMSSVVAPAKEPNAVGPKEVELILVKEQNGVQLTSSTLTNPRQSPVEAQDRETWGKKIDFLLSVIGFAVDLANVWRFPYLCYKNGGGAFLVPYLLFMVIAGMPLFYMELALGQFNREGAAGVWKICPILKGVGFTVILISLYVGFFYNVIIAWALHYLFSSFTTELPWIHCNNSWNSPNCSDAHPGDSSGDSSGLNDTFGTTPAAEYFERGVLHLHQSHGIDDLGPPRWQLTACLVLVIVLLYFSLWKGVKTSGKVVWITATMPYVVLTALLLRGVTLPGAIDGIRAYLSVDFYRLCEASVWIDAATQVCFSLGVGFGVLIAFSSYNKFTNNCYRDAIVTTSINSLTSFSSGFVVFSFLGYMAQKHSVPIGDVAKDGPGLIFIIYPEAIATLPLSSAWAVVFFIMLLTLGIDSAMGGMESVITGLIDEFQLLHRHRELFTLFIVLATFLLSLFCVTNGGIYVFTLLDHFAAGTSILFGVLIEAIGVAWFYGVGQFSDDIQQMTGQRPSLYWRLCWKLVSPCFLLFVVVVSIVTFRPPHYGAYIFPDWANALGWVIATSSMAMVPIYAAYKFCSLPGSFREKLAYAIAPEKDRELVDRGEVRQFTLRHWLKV
T2 sequence (P31645 whole entry): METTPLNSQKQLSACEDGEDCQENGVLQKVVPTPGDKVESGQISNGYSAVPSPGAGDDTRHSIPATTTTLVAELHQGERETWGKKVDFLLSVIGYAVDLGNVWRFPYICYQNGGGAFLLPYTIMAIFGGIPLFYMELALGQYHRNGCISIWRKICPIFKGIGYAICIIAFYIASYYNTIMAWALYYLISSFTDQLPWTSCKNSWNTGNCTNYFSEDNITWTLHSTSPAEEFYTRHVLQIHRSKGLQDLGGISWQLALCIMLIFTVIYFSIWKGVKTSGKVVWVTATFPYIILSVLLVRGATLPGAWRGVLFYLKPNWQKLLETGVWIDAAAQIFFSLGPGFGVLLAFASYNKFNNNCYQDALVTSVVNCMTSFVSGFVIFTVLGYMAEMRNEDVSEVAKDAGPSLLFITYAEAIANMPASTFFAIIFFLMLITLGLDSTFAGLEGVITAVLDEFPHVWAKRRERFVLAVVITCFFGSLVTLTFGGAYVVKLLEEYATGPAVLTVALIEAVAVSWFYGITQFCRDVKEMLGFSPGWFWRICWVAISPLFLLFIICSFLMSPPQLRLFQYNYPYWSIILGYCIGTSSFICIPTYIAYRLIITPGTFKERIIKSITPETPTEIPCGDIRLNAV
T3 sequence (Q01959 whole entry): as the sequence (Q01959 whole entry) above
T1 sequence (Q01959 whole entry): as above

Take `[O-][S@@+](Cc1cccs1)[C@@H](c1ccccc1)c1cccc(Br)c1` [Compound 7h, (S,S)-2-((((3-bromophenyl)(phenyl)methyl)sulfinyl)methyl)thiophene]: the 50% inhibitory concentration (IC50) in data set [1] stood at 0.48 ± 0.11 µM. In addition, the IC50 in data set [2] is greater than 50 µM. At human DAT, this molecule showed a Ki of 0.013 µM. In data set [3], the “action on the dopamine-releasing effect of D-amphetamine” value was “potent inhibiting action” and the “efflux-increasing (releasing) action on DAT-expressing, substrate-loaded superfused cells” value is “absence of an efflux-increasing action; also recorded: lack of amphetamine-like effects”. Moreover, the IC50 in the data set with rat cortical neurons (setting [5]) was 65.8 µM. Moreover, the concentration for half-maximal inhibition (IC50) in the data set on rat cortical neurons (setting [6]) was 59.8 µM. In the data set with rat cortical neurons (setting [7]), the IC50 was 92.2 µM. Further, in the data set with rat cortical neurons, the “window between neurite outgrowth effect concentration and active concentration” value is given as “more than 100 fold”; the “effect on valid neuron count, mean neurite average length and neurite total length per neuron” value is “significant decreases”; the “effect on neurite outgrowth in relation to effect on cell viability” value is “not independent of their effect on cell viability”; the cell-toxic effects result is recorded as “absence of cell-toxic effects”. Also, in data set [4] (rat, brain, ip), the Cmax is 478 ng/g and the half-life was 3 h. Besides, in data set [4] (rat, brain, ip, read-out: median Tmax in the brain), the Tmax is 1 h. Also, the “detectable in brain post-administration” value in data set [4] is recorded as “up to 10 h”.

Regarding `[O-][S@+](Cc1cccs1)[C@H](c1ccccc1)c1cccc(Br)c1` [Compound 8h, (R,R)-2-((((3-bromophenyl)(phenyl)methyl)sulfinyl)methyl)thiophene], the IC50 in data set [1] amounted to 0.3 ± 0.03 µM. The molecule further yielded an IC50 in data set [2] of 14 ± 3 µM. At human DAT, the Ki stood at 0.035 µM. For the same molecule, in data set [3], the “action on the dopamine-releasing effect of D-amphetamine” value was “potent inhibiting action” and the “efflux-increasing (releasing) action on DAT-expressing, substrate-loaded superfused cells” value is recorded as “absence of an efflux-increasing action; also recorded: lack of amphetamine-like effects”. In the data set on rat cortical neurons (setting [5]), the IC50 came out at 75.2 µM. Also, the IC50 in the data set on rat cortical neurons (setting [6]) stood at 72.2 µM. In the data set with rat cortical neurons (setting [7]), the IC50 amounted to 94.6 µM. Moreover, in the data set on rat cortical neurons, the “window between neurite outgrowth effect concentration and active concentration” value is recorded as “more than 100 fold”; the “effect on valid neuron count, mean neurite average length and neurite total length per neuron” value is recorded as “significant decreases”; the “effect on neurite outgrowth in relation to effect on cell viability” value was “not independent of their effect on cell viability”; the cell-toxic effects result is on record as “absence of cell-toxic effects”.

One may read the IC50 as the point on the concentration scale where inhibition reaches its midpoint. As usually defined, the Ki is a measure of affinity in units of concentration, obtained from inhibition or displacement. A higher Ki goes with a looser hold on the target. A word on the Cmax: it is the maximum level reached in the sampled fluid or tissue. Usually half-life stands for how long it takes for the measured level to halve. Low values mean fast loss, high ones slow loss. Broadly, the Tmax is the time from dosing to the highest level.
